Measured values: article PMC6430017, “Structural and chemical insights into the covalent-allosteric inhibition of the protein kinase Akt” (Chemical Science, 2019)

Key:
[1] = human, 3 µM
Procedure: For this purpose, we used a microsomal stability assay that is a good predictor for phase I metabolic stability.[50]
Phase I metabolic stability assay
Metabolic stability under oxidative conditions was determined by LCMS-based measuring of
degradation of compounds at 3 µM in human and murine liver microsomes over 60 minutes at 37 °C
Calculating the compound half-life t1/2, the in vitro intrinsic clearance CLint is

[2] = test system: BT-474; test: Cell viability assay (CellTiter-Glo); type: cell-based; conditions: Homo sapiens, 120 h; BT-474 (breast), day 5; read-out: Cell viability assay EC50
Procedure: Cell Culture and Viability Assay
(§1) analysis, cells were plated on day 0 into white 384-well cell culture plates (Greiner Bio-One) using a
(§2) Multidrop reagent dispenser (Thermo) at cell numbers that ensure linear and optimal luminescent
(§3) signal intensity (AN3-CA: 800 cells/well; BT-474: 400 cells/well; Dan-G: 400 cells/well; HPAF-II: 400
(§4) cells/well). Then the cells were incubated for 24 h in a humidified atmosphere at 37 °C/5 % CO2. The
(§5) cells were treated with inhibitors in serial dilutions ranging from 30 µM down to 0.1 nM using an Echo
(§6) 520 acoustic liquid handler (Labcyte Inc.). Cell viability was analysed on day 5 using the CellTiter-Glo
(§7) assay (Promega) as per manufacturer’s instructions. Luminescence signal was recorded by an EnVision
(§8) Multilabel 2104 Plate Reader (PerkinElmer) with 500 ms integration time. All data were normalized to
(§9) the plate positive control (30 µM staurosporine) and negative control (DMSO). Finally, the data was
(§10) processed with the Quattro Software Suite using a four parameter logistic model. As a quality control,
(§11) the Z’-factor was calculated from 16 positive and negative control values. Only assay results showing
(§12) a Z’-factor ≥ 0.5 were used for further analysis. All experimental points were measured in duplicates
(§13) for each plate and were replicated in at least three times.

[3] = test system: MCF-7; test: Cell viability assay (CellTiter-Glo); type: cell-based; conditions: Homo sapiens, MCF7, 120 h; MCF-7 (breast), day 5; read-out: Cell viability assay EC50
Procedure: Cell Culture and Viability Assay
as §1, §2, §3, §4, §5, §6, §7, §8, §9, §10, §11, §12, §13

[4] = molecular target: T1, Akt1 (Homo sapiens, UniProt P31749); test: Intact protein mass spectrometry, covalent labeling; type: binding; conditions: 10 µM protein, 100 µM inhibitor, 1 h, denaturing conditions
T1 construct: Purified full-length wtAkt1 was incubated with a 2-fold molar excess
T1 sequence (P31749 whole entry): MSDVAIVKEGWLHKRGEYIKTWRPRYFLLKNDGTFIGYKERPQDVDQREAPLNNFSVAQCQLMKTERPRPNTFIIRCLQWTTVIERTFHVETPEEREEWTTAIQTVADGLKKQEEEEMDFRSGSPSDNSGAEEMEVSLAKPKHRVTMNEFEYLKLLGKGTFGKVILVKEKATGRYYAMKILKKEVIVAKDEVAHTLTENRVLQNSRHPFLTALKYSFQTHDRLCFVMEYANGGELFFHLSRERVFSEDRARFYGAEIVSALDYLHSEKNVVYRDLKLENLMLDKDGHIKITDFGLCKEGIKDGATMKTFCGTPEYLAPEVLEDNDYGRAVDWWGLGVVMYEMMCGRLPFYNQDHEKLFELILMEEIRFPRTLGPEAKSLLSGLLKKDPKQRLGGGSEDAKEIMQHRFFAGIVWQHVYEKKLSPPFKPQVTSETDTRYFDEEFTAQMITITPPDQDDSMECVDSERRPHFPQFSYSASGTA
Procedure: In order to provide an orthogonal proof for covalent bond formation, we co-incubated the covalent-allosteric inhibitors with the protein Akt1 and analyzed the samples by mass spectrometry (Fig. 2).
Mass spectra were recorded using denaturing conditions.
We used Akt1 for MS experiments and incubated 10 µM of the protein with 100 µM of the inhibitor in
a buffer for 1 h. We analyzed the samples by mass spectrometry using a Thermo Fisher Scientific
Ultimate 3000 HPLC system connected with a Thermo Fisher Scientific Velos Pro (2D ion trap).
A mass range of 700-2000 m/z was scanned
and raw data were deconvoluted and analyzed with ProMass.

[5] = test system: ZR-75-1; test: Cell viability assay (CellTiter-Glo); type: cell-based
Procedure: Cell Culture and Viability Assay
as §1, §2, §3, §4, §5, §6, §7, §8, §9, §10, §11, §12, §13

[6] = test system: KU-19-19; test: Cell viability assay (CellTiter-Glo); type: cell-based; conditions: Homo sapiens, 120 h; KU-19-19 (bladder), day 5; read-out: Cell viability assay EC50
Procedure: Cell Culture and Viability Assay
as §1, §2, §3, §4, §5, §6, §7, §8, §9, §10, §11, §12, §13

[7] = molecular target: AKT1 (PKB alpha) (Homo sapiens, UniProt P31749); test: SelectScreen Z'LYTE kinase profiling; type: biochemical; conditions: ATP at apparent KM
Chain of AKT1 (PKB alpha) (P31749 whole entry): as above
Procedure: (§14) protein kinases at a compound concentration of 1 µM. Measurements were performed in duplicates
(§15) and at the particular apparent ATP KM of each individual kinase employing the activity based Z’LYTE®
(§16) kinase assay of the SelectScreen® Kinase Profiling Services (ThermoFisher Scientific).
(§17) kinases at a compound concentration of 1 µM. Measurements were performed in duplicates and at
(§18) the particular apparent ATP KM of each individual kinase employing the activity based Z’LYTE® kinase
(§19) assay of the SelectScreen® Kinase Profiling Services (ThermoFisher Scientific).

[8] = molecular target: full-length Akt (Akt^wt) (Homo sapiens, UniProt P31749); test: Kinetic characterization by time-dependent IC50 measurements; type: biochemical; conditions: from time-dependent IC50
Chain of full-length Akt (Akt^wt) (P31749 whole entry): as above
Procedure: The biochemical inhibitory activity (IC50) was determined with the HTRF KinEASE assay from Cisbio as
previously described.1 All reagents for HTRF experiments were purchased from Cisbio Bioassays,
France. The measurements were analyzed using the Quattro Software Suite for IC50-determination.
Time-dependent IC50-measurements were performed as described. Briefly, IC50 values were
determined for twelve different incubation times and afterwards plotted versus accordingly. Data was
analyzed according to literature procedure.2

[9] = test system: AN3CA; test: Cell viability assay (CellTiter-Glo); type: cell-based; conditions: Homo sapiens, AN3-CA, 120 h; AN3CA (endometrium), day 5; read-out: Cell viability assay EC50
Procedure: Cell Culture and Viability Assay
as §1, §2, §3, §4, §5, §6, §7, §8, §9, §10, §11, §12, §13

[10] = molecular target: AKT3 (PKB gamma) (Homo sapiens, UniProt Q9Y243); test: SelectScreen Z'LYTE kinase profiling; type: biochemical; conditions: ATP at apparent KM
Chain of AKT3 (PKB gamma) (Q9Y243 whole entry): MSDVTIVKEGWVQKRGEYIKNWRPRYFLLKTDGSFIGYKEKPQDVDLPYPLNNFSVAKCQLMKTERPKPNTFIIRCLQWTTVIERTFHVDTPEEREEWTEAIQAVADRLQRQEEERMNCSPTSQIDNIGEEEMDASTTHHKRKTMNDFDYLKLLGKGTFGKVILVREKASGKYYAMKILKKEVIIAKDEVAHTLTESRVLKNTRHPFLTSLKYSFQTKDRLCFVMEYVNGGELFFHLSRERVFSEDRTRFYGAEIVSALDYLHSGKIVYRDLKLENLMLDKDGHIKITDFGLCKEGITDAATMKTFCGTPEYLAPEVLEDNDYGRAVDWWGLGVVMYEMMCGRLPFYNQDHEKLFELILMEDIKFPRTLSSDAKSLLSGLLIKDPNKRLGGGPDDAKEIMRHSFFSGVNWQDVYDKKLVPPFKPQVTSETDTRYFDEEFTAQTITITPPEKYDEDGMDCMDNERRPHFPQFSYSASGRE
Procedure: as §14, §15, §16, §17, §18, §19

Structure (SMILES): C=CC(=O)Nc1ccc2c(c1)n(C1CCN(Cc3ccc(-c4nc5cc[nH]c(=O)c5cc4-c4ccccc4)cc3)CC1)c(=O)n2C [24b]
- fold lower stability in microsomes [1]: 4 fold
- EC50 [2]: 109 ± 16 nM
- EC50 [3]: 32 ± 8 nM
- labeling of Akt1 by mass spectrometry [4]: complete labeling
- EC50 ([5]; Homo sapiens, 120 h, ZR-75-1 (breast), day 5, read-out: Cell viability assay EC50): 2 nM
- fold higher inhibitory activity than borussertib ([5]; ZR-75-1 EC50): 2 fold
- EC50 [6]: 7160 ± 2110 nM
- inhibition at 1 µM [7]: 98%
- Ki [8]: 10.7 ± 0.5 nM
- kinact [8]: 0.00202 s⁻¹
- kinact/KI [8]: 190000 ± 25000 M⁻¹ s⁻¹
- EC50 [9]: 230 ± 75 nM
- inhibition at 1 µM [10]: 75%
